From patent publication US5185341A, “Substituted 5-(phenoxyalkanoylamino)-uracil compounds, methods for making same and pharmaceutical compositions based on same” (Arzneimittelwerk Dresden GMBH, priority 1990, dated 1993)
Counter-ions that a name gives are not always drawn.

Experiments:
[1] = Arzneimittelforschung 27(1977) p. 132; cited from earlier work
[2] = Antibiotiki 24(1979) p.659; cited from earlier work
[3] = Toxicity test in mouse (LD50, intraperitoneal application); settings: in vivo, ip
Source text: The results of these toxicity tests on mouse and rat are shown in the following table as well as the effective dosage: […]

SMILES | protection against radiation [1] | antibiotic action [2] | LD50 [3]
Cc1cc(=O)[nH]c(=O)[nH]1 [6-methyluracil] | can protect against radiation | has an antibiotic action | 
Cc1[nH]c(=O)n(C)c(=O)c1NC(=O)COc1ccc(Cl)cc1 [Example 1, 5-(p-Chlorophenoxy-acetamido)-1,4-dimethyluracil] |  |  | > 1700 mg/kg
Cc1[nH]c(=O)[nH]c(=O)c1NC(=O)COc1ccc(Cl)cc1 [Example 2, 5-(p-Chlorophenoxy-acetamido)-4-methyluracil] |  |  | 800 mg/kg
Cc1c(NC(=O)COc2ccc(Cl)cc2)c(=O)n(C)c(=O)n1C [Example 3] |  |  | > 1700 mg/kg
Cn1c(N)c(NC(=O)COc2ccc(Cl)cc2)c(=O)n(C)c1=O [Example 4, 4-amino-5-(p-Chlorophenoxy-acetamido)-1,3-dimethyluracil] |  |  | > 1700 mg/kg
CN(C)CCOC(=O)COc1ccc(Cl)cc1 [Meclofenoxate HCl] |  |  | 856 mg/kg
NC(=O)CN1CCCC1=O [Piracetam] |  |  | > 2000 mg/kg
